Measured values reported in patent publication US20250230149A1, “MGLUR5 MODULATING COMPOUNDS, COMPOSITIONS, AND METHODS OF USE” (Allyx Therapeutics, Inc., priority 2022, published 2025).
Entries after “also recorded” stand apart in the source; their conditions may differ. Where two headings read alike, the source gives them in different places.

Experiments:
[1] = target: T1, CYP2C8 (Homo sapiens, UniProt P10632); test: CYP450 reaction phenotyping in Supersomes, CYP2C8; type: in vitro ADME
T1 construct: purchased
T1 sequence (P10632 whole entry): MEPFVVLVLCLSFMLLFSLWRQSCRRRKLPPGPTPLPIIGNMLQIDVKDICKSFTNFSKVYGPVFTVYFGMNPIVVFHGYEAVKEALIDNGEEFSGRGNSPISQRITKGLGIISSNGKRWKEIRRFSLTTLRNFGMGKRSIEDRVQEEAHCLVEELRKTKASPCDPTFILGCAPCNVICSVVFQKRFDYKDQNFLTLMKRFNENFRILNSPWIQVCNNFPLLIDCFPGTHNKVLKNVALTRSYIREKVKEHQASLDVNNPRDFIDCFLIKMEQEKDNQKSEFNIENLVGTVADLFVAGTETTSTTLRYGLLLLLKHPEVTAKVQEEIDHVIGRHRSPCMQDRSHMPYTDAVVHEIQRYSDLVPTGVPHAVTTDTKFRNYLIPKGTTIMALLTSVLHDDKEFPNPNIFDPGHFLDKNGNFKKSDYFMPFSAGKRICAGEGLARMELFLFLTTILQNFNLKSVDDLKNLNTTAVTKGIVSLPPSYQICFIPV
Description: In Vitro CYP450 Reaction Phenotyping Study in Supersomes™ Over-Expressing Human CYP Enzymes
The CYPP450 enzymes involved in the Phase I metabolism of Compound 1 Form A were investigated in vitro. Compound 1 Form A was metabolized by CYP1A2, CYP2D6 and CYP3A4 and with T1/2 values of 64, 14, and 176 min, respectively, and CLint of 0.261, 0.984 and 0.0786 μL/min/pmol CYP, respectively. No evidence of Compound 1 metabolism by CYP2B6, CYP2C8, CYP2C9 and CYP2C19 was observed.

[2] = target: T2, pregnane X receptor (PXR) (Homo sapiens, UniProt O75469); test: PXR receptor activation, human; type: in vitro ADME
T2 sequence (O75469 1-434): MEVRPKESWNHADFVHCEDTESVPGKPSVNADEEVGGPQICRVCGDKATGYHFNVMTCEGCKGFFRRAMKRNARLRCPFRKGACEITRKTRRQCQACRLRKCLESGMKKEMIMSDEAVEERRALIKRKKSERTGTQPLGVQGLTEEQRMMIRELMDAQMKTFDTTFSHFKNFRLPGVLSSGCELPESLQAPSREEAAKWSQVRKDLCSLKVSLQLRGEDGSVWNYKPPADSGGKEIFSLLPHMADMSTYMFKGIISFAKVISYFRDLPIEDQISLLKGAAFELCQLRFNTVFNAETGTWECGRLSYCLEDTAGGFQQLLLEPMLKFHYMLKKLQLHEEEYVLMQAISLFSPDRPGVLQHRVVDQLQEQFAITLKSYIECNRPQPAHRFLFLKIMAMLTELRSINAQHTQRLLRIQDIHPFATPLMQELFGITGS
Excerpt: (§1) The objective of this study was to determine the human and rat pregnane X receptor (PXR) and human and rat aryl hydrocarbon receptor (AhR) receptor activation potential of Compound 1 Form A. The activation of PXR is a marker for induction of CYP3A4/5 and […] and the activation of AhR is a marker for induction of CYP1A.

[3] = target: aryl hydrocarbon receptor (AhR) (Homo sapiens, UniProt P35869); test: AhR receptor activation, human; type: in vitro ADME; conditions: at 30 μM
Chain of aryl hydrocarbon receptor (AhR) (P35869 11-848): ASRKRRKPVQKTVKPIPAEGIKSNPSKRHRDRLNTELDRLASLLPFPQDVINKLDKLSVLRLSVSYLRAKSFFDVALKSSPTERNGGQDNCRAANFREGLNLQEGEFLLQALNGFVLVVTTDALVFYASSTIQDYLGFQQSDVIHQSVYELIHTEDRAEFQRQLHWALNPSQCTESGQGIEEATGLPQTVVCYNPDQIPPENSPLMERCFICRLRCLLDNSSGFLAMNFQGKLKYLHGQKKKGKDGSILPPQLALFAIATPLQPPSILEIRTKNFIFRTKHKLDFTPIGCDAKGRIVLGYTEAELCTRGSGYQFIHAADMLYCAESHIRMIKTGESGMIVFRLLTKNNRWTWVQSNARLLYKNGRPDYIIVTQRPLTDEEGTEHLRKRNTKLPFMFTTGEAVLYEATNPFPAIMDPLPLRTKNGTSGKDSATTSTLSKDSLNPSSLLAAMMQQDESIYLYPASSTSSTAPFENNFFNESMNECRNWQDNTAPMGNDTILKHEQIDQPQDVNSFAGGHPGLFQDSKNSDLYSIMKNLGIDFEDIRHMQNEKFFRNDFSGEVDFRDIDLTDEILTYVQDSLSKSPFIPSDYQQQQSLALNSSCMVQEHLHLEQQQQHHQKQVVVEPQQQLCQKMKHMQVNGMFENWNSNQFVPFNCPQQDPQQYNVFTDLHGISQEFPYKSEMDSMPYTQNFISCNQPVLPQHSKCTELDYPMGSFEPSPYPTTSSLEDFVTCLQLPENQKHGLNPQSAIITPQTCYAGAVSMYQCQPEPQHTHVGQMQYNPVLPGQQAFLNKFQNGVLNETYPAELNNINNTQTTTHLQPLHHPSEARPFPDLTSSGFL
Excerpt: as §1

[4] = target: T3, mGluR5 (Mus musculus, UniProt Q3UVX5); test: [18F]FPEB PET displacement, receptor occupancy; type: in vivo, mice; conditions: for receptor occupancy at 3.75 mg/kg: mouse
T3 construct: from tissue; host or cells: brain of living mice
T3 sequence (Q3UVX5 19-1203): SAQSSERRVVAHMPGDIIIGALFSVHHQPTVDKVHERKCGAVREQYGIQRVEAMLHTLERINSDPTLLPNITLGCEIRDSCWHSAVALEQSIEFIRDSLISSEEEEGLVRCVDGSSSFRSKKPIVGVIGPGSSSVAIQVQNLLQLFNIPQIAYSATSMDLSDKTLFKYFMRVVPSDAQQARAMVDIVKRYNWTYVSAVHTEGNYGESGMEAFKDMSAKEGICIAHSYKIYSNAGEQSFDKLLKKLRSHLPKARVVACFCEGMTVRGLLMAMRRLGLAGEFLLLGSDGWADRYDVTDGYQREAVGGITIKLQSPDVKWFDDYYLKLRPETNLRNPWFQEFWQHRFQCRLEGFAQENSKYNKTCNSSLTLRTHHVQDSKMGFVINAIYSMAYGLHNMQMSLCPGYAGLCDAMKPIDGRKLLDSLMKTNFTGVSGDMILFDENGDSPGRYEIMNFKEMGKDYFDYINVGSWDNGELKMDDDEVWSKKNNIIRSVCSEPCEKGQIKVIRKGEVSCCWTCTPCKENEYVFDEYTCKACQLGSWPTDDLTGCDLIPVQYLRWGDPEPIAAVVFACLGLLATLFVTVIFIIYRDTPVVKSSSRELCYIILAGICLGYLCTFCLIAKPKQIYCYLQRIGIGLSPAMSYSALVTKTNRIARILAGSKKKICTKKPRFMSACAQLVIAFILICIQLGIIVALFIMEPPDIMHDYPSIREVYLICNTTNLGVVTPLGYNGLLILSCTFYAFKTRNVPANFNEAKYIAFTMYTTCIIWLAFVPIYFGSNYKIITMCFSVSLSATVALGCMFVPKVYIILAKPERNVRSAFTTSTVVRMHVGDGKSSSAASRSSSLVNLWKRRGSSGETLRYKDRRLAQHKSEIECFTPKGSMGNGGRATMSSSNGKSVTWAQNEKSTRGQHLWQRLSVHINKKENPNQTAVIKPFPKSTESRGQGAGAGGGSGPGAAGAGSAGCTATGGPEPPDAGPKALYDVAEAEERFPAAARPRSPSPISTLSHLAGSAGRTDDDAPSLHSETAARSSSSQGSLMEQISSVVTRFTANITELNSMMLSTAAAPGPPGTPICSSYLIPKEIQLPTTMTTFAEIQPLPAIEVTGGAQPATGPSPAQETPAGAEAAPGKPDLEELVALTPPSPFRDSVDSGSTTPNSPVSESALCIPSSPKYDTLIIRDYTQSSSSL
Description: A mGluR5 PET ligand, [^18F]FPEB, was used to assess receptor occupancy in mice. Mice were dosed orally twice a day with different doses of Compound 1. The available mGluR5 sites in brain were assessed in anesthetized mice both at peak 1 h after a single dose, and at trough after 7 days of twice daily (b.i.d.) oral dosing. The 3.75 mg/kg b.i.d. dose maintains >90% receptor occupancy throughout the dosing period. […] FPEB into the brain of mice. Displacement studies were conducted at expected trough levels and conducted at three dose levels: 0.42, 1.25 and 3.75 mg/kg. The 3.75 mg/kg dose was able to achieve >90% receptor occupancy at trough.

[5] = target: mGluR5 (Homo sapiens, UniProt P41594); test: [3H]-MPEPy displacement from mGluR5; type: binding; conditions: read-out: inhibitor constant (Ki) for [3H]-MPEPy displacement from mGluR5
Chain of mGluR5 (Homo sapiens, UniProt P41594) (P41594 21-1212): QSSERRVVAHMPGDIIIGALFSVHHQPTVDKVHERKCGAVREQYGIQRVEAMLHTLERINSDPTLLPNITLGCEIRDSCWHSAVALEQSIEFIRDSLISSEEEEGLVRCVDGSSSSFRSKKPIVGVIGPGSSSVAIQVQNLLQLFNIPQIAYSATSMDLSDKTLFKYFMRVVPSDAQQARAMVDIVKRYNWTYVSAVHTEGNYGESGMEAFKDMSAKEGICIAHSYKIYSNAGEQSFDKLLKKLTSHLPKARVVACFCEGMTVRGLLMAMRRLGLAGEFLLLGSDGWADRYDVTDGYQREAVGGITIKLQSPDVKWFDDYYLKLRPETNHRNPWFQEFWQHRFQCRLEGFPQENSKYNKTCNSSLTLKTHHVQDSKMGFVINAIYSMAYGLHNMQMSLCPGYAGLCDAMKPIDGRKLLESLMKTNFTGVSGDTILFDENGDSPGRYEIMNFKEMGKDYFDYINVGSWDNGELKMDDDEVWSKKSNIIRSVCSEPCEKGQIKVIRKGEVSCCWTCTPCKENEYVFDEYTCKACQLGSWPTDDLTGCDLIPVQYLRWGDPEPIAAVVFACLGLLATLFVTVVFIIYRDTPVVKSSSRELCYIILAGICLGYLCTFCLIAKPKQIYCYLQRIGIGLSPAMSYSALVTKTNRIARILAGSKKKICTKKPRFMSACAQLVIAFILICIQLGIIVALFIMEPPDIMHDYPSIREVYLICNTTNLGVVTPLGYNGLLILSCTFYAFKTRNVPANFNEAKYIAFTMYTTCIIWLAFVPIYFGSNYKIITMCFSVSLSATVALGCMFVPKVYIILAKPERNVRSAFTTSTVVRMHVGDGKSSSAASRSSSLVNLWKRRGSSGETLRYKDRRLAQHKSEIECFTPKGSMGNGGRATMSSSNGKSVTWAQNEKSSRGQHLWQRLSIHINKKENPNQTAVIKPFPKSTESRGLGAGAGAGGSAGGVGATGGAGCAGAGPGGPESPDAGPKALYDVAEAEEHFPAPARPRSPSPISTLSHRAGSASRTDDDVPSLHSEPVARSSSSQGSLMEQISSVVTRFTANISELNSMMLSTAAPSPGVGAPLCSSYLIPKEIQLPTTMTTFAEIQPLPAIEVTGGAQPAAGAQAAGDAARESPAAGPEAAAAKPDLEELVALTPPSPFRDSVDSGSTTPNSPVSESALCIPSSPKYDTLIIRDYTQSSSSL

[6] = system: dKI mice; test: SV2A PET imaging of synaptic density in APPNLGF/MAPT (dKI) mouse model; type: in vivo; conditions: 12 months of age, one-month treatment, 3.75 mg/kg q12 oral
Description: The objective of this study was to assess synaptic density of control and Amyloid Precursor Protein carrying NL-G-F mutations/Microtubule-associated protein tau (APP^NLGF/MAPT) (dKI—double knock-in) mice before and after treatment with Compound 1. Vehicle (95% PEG-400/5% Solutol) or Compound 1 at 7.5 mg/kg/day (3.75 mg/kg q12) was given to control and dKI mice for at least 28 days by oral administration.
To further maximize translational relevance, in other studies mice were aged to the point that synapse loss was detectable using SV2A PET. At 12 months of age, synapse density, as measured by hippocampal/brainstem [^18F]SDM-8 SUVR-1, was reduced in dKI mice relative to wild-type.

[7] = system: C57/BI6J mice; test: Prevention of positive allosteric modulator (PAM) induced seizures; type: in vivo; conditions: oral gavage 2 hours before PAM 20 mg/kg i.p.
Description: The objective of this study was to assess the enantiomeric selectivity of Compound 1 for the mGluR5 receptor as a function of seizure prevention. It had been previously reported that PAMs of mGluR5 are capable of inducing seizures in C57/BI6J mice.
Compound 1 (0.12, 0.24, 0.47, 0.94, 1.88, 3.75 or 7.5 mg/kg), enantiomer of Compound 1 (7.5, 15 or 30 mg/kg) or vehicle were administered by oral gavage to C57/BI6J mice of 3-11 months of age. After 2 hours, a PAM compound was administered at 20 mg/kg via intraperitoneal injection. Animals were then placed in a 10 inch diameter acrylic cage for observation and video recording for 2 h post dose and seizures were scored using the Racine seizure scoring criteria and normalized to a scale of 0-1.

[8] = system: double knock-in mice; test: Tau accumulation in double knock-in mice; type: in vivo
Excerpt: Compound 1 (e.g., Form A) prevented Alzheimer's triggered aberrant synaptic signaling while preserving physiological Glu activation. Studies have been conducted to show oral Compound 1 effectively occupied brain mGluR5 sites visualized by [^18F]FPEB PET at doses 250-fold below adverse effect levels in rodent and non-human primate. […] Production of the microglial mediator, C1q, was not altered by Compound 1, but Alzheimer-gene-dependent C1q localization to synapses and synaptic engulfment were prevented. Thus, selective modulation of mGluR5 reversed neuronal gene expression changes to protect synapses from damage by microglial mediators.

[9] = in vivo
Description: Six cohorts of 6 participants each received a single oral dose of Compound 1 in the fasted state at the following dose levels: 10, 40, 70, 100, 150, and 200 mg and then were followed for 7 days; the starting dose of 10 mg was <10% of the 140 mg human equivalent dose (HED) of the rat NOAEL in the GLP 28-day rat study of 15 mg/kg.

[10] = system: C57/BI6J mice; conditions: single 7.5 mg/kg dose; cited from earlier work

O=C1N[C@H](c2cncc(C#Cc3ccccc3)c2)[C@@H](c2ccccc2Cl)O1 [Compound 1, (4R,5R)-5-(2-chlorophenyl)-4-(5-(phenylethynyl)pyridin-3-yl)oxazolidin-2-one]
metabolism by CYP2C8 [1]: No evidence
PXR activation, % of the positive control [2]: 29.6%
calculated F2 value, PXR [2]: 5.05 UM
mean maximum fold activation of PXR [2]: 4.58 fold
AhR activation, % of the positive control [3]: 1.11%
mean maximum fold activation of AhR [3]: 1.78 fold
free drug above the Ki ([4]; mice, 3.75 mg/kg b.i.d.): 25 fold
free trough drug level ([4]; mice, 3.75 mg/kg b.i.d. oral): 15 nM
receptor occupancy at 3.75 mg/kg ([4]; mice, 3.75 mg/kg b.i.d. oral, read-out: receptor occupancy throughout the dosing period): > 90%
receptor occupancy at 3.75 mg/kg ([4]; mice, 3.75 mg/kg dose, oral, read-out: receptor occupancy at trough): > 90%
doses occupying brain mGluR5 sites below adverse effect levels ([4]; oral, rodent and non-human primate): 250 fold
Ki [5]: 0.6 nM
synaptic density, SV2A PET (hippocampal/brainstem [18F]SDM-8 SUVR-1) [6]: fully recovered; also recorded: highly significant increase
seizure prevention activity ([7]; Compound 1 0.12-7.5 mg/kg, enantiomer 7.5-30 mg/kg): dose dependent prevention
IC50 of inhibition of PAM-induced seizures ([7]; Racine score): 1.09 mg/kg
Tau accumulation [8]: reduced
human equivalent dose (HED) of the rat NOAEL [9]: 140 mg
NOAEL at 28 days ([9]; rat): 15 mg/kg
prevention of PAM-induced seizures, shown previously [10]: prevents seizures
